What was measured:
Type in all cases: in vivo
Amaranthus retroflexus = test: Test Example 4: herbicidal effect by soil treatment (symbol N)
Summary of the method: (§1)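 Seeds were sown in sterilized diluvial soil, covered with about 1.5 cm of soil, and the soil surface was sprayed with a water-diluted emulsion of the compound at a predetermined rate. Plants grew in a greenhouse at 25° C. to 30° C.; effects were scored visually 3 weeks after application.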

corn = test: Test Example 5: effect on crop by foliage application, plastic box (symbol c); details: 320 g/ha, 3 weeks after application
Summary of the method: (§2)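 Diluvial soil, sterilized and boxed (21 × 13 × 7 cm), received spot-sown seed covered by about 1.5 cm soil; plants were then greenhouse-grown at 25–30° C.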

[1] = system: Echinochloa oryzacola Vasing.; test: Test Example 1: herbicidal activity, application before weed generation in submerged conditions (symbol A); details: application herbicide amount 320 g/ha
Summary of the method: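 Weeds are sown into submerged alluvial soil alongside transplanted 2.5-leaf rice, and the compound, as an emulsion diluted to a set rate, is applied onto the water before emergence. Rating on the 0–5 herbicidal-ratio scale follows 3 weeks of greenhouse growth at 25–30 °C.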

wheat = test: Test Example 4: effect on crop by soil treatment (symbol e); details: for e: wheat, effect on crop grade / e (wheat) effect on crop grade: application herbicide amount 320 g/ha; for e: wheat, effect grade on crop: 320 g/ha
Summary of the method: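 Steps: fill box with sterilized diluvial soil; sow seed spot-like; cover with ~1.5 cm soil; grow in greenhouse (25° C. to 30° C.).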

Apera spica-venti = test: Test Example 4: herbicidal effect by soil treatment (symbol L)
Summary of the method: as §1

Veronica persica = test: Test Example 5: herbicidal effect by foliage application, plastic box (symbol R); details: 320 g/ha, 3 weeks after application
Summary of the method: (§3)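 After sowing into sterilized diluvial soil and growing two weeks under glass at 25° C. to 30° C., seedlings receive a uniform foliar spray of diluted emulsion. Damage is judged visually three weeks on.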

Chenopodium album = test: Test Example 5: herbicidal effect by foliage application, plastic box (symbol O); details: 320 g/ha, 3 weeks after application
Summary of the method: as §3

soybean = test: Test Example 5: effect on crop by foliage application, plastic box (symbol d); details: 320 g/ha, 3 weeks after application
Summary of the method: as §2

Cyperus difformis = test: Test Example 3: herbicidal effect by foliage application, Wagner pot (symbol E); details: application herbicide amount 320 g/ha
Summary of the method: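 Rating at 3 weeks post-spray, by defined criteria. Treatment: emulsion diluted with water to a predetermined amount, applied evenly to foliage of 14-day-old plants raised in alluvial soil flooded 0.1–0.5 cm deep at 25–30 °C, rice co-sown.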

Galium spurium = test: Test Example 5: herbicidal effect by foliage application, plastic box (symbol Q); details: 320 g/ha, 3 weeks after application
Summary of the method: as §3

Abutilon theophrasti = test: Test Example 4: herbicidal effect by soil treatment (symbol M)
Summary of the method: as §1

[2] = application herbicide amount 320 g/ha

Row | Structure (SMILES) | N: Amaranthus retroflexus, herbicidal effect grade (Amaranthus retroflexus; [2]) | c: corn, effect on crop grade (corn) | Herbicidal effect grade, A: Echinochloa oryzacola Vasing. [1] | e: wheat, effect on crop grade (wheat) | L: Apera spica-venti, herbicidal effect grade (Apera spica-venti; [2]) | R: Veronica persica, herbicidal effect grade (Veronica persica) | O: Chenopodium album, herbicidal effect grade (Chenopodium album) | d: soybean, effect on crop grade (soybean) | herbicidal effect on E, grade 0-5 (Cyperus difformis) | Q: Galium spurium, herbicidal effect grade (Galium spurium) | M: Abutilon theophrasti, herbicidal effect grade (Abutilon theophrasti; [2]) | further results
1 | CON=C(C)CC1CC(O)=C(c2c(C)cc(-n3cc(Cl)cn3)cc2C)C1=O (mixture of isomers) [6-004] | 4 (Herbicidal ratio of 70% or higher and lower than 90%) | 4 (Herbicidal ratio of 70% or higher and lower than 90%) | 5 (Herbicidal ratio of 90% or more (almost completely withered)) | 0 (Herbicidal ratio of 5% or lower (almost no effect)) | 5 (Herbicidal ratio of 90% or more (almost completely withered)) | 3 (Herbicidal ratio of 40% or higher and lower than 70%) | 3 (Herbicidal ratio of 40% or higher and lower than 70%) | 1 (Herbicidal ratio of 5% or higher and lower than 20%) | 5 (Herbicidal ratio of 90% or more (almost completely withered)) | 3 (Herbicidal ratio of 40% or higher and lower than 70%) | 0 (Herbicidal ratio of 5% or lower (almost no effect)) | 
2 | C#CCOC1=C(c2c(C)cc(C)cc2C)C(=O)C(CC(C)=NOC)C1 (centres unmarked) [1-008] |  | 0 (Herbicidal ratio of 5% or lower (almost no effect)) | 5 (Herbicidal ratio of 90% or more (almost completely withered)) |  |  | 0 (Herbicidal ratio of 5% or lower (almost no effect)) | 0 (Herbicidal ratio of 5% or lower (almost no effect)) | 2 (Herbicidal ratio of 20% or higher and lower than 40%) | 4 (Herbicidal ratio of 70% or higher and lower than 90%) | 0 (Herbicidal ratio of 5% or lower (almost no effect)) |  | N (Amaranthus retroflexus) herbicidal effect grade (Amaranthus retroflexus; [2]): 0 (Herbicidal ratio of 5% or lower (almost no effect)); e (wheat) effect on crop grade (wheat): 0 (Herbicidal ratio of 5% or lower (almost no effect)); L (Apera spica-venti) herbicidal effect grade (Apera spica-venti; [2]): 5 (Herbicidal ratio of 90% or more (almost completely withered)); M (Abutilon theophrasti) herbicidal effect grade (Abutilon theophrasti; [2]): 0 (Herbicidal ratio of 5% or lower (almost no effect))
3 | CON=C(C)CC1CC(OCC(=O)OC)=C(c2c(C)cc(C)cc2C)C1=O (centres unmarked) [1-012] |  | 0 (Herbicidal ratio of 5% or lower (almost no effect)) | 0 (Herbicidal ratio of 5% or lower (almost no effect)) |  |  | 0 (Herbicidal ratio of 5% or lower (almost no effect)) | 0 (Herbicidal ratio of 5% or lower (almost no effect)) | 0 (Herbicidal ratio of 5% or lower (almost no effect)) | 0 (Herbicidal ratio of 5% or lower (almost no effect)) | 0 (Herbicidal ratio of 5% or lower (almost no effect)) |  | N (Amaranthus retroflexus) herbicidal effect grade (Amaranthus retroflexus; [2]): 0 (Herbicidal ratio of 5% or lower (almost no effect)); e (wheat) effect on crop grade (wheat): 0 (Herbicidal ratio of 5% or lower (almost no effect)); L (Apera spica-venti) herbicidal effect grade (Apera spica-venti; [2]): 0 (Herbicidal ratio of 5% or lower (almost no effect)); M (Abutilon theophrasti) herbicidal effect grade (Abutilon theophrasti; [2]): 0 (Herbicidal ratio of 5% or lower (almost no effect))
4 | CON=C(C)CC1CC(OC(=O)C(C)(C)c2ccc(Cl)cc2)=C(c2c(C)cc(C)cc2C)C1=O (centres unmarked) [1-148] |  |  | 5 (Herbicidal ratio of 90% or more (almost completely withered)) |  |  |  |  |  | 4 (Herbicidal ratio of 70% or higher and lower than 90%) |  |  | N: Amaranthus retroflexus, herbicidal effect grade (Amaranthus retroflexus; 320 g/ha): 2 (Herbicidal ratio of 20% or higher and lower than 40%); c: corn, effect on crop (criteria 0-5) (corn): 4 (Herbicidal ratio of 70% or higher and lower than 90%); e: wheat, effect grade on crop (wheat): 0 (Herbicidal ratio of 5% or lower (almost no effect)); L: Apera spica-venti, herbicidal effect grade (Apera spica-venti; 320 g/ha): 5 (Herbicidal ratio of 90% or more (almost completely withered)); R: Veronica persica, herbicidal effect (criteria 0-5) (Veronica persica): 3 (Herbicidal ratio of 40% or higher and lower than 70%); O: Chenopodium album, herbicidal effect (criteria 0-5) (Chenopodium album): 1 (Herbicidal ratio of 5% or higher and lower than 20%); d: soybean, effect on crop (criteria 0-5) (soybean): 3 (Herbicidal ratio of 40% or higher and lower than 70%); Q: Galium spurium, herbicidal effect (criteria 0-5) (Galium spurium): 3 (Herbicidal ratio of 40% or higher and lower than 70%); M: Abutilon theophrasti, herbicidal effect grade (Abutilon theophrasti; 320 g/ha): 5 (Herbicidal ratio of 90% or more (almost completely withered))
5 | COC(=O)C(C(C)=O)C1CC(O)=C(c2c(C)cc(C)cc2C)C1=O (centres unmarked) [2-003] |  | 3 (Herbicidal ratio of 40% or higher and lower than 70%) | 0 (Herbicidal ratio of 5% or lower (almost no effect)) |  |  | 3 (Herbicidal ratio of 40% or higher and lower than 70%) | 0 (Herbicidal ratio of 5% or lower (almost no effect)) | 0 (Herbicidal ratio of 5% or lower (almost no effect)) | 4 (Herbicidal ratio of 70% or higher and lower than 90%) | 0 (Herbicidal ratio of 5% or lower (almost no effect)) |  | N: Amaranthus retroflexus, herbicidal effect grade (Amaranthus retroflexus; 320 g/ha): 0 (Herbicidal ratio of 5% or lower (almost no effect)); e: wheat, effect grade on crop (wheat): 0 (Herbicidal ratio of 5% or lower (almost no effect)); L: Apera spica-venti, herbicidal effect grade (Apera spica-venti; 320 g/ha): 5 (Herbicidal ratio of 90% or more (almost completely withered)); M: Abutilon theophrasti, herbicidal effect grade (Abutilon theophrasti; 320 g/ha): 0 (Herbicidal ratio of 5% or lower (almost no effect))
6 | CCOC(=O)C(C(=O)C(C)C)C1CC(O)=C(c2c(C)cc(C)cc2C)C1=O (centres unmarked) [2-009] | 0 (Herbicidal ratio of 5% or lower (almost no effect)) | 0 (Herbicidal ratio of 5% or lower (almost no effect)) | 0 (Herbicidal ratio of 5% or lower (almost no effect)) | 0 (Herbicidal ratio of 5% or lower (almost no effect)) | 0 (Herbicidal ratio of 5% or lower (almost no effect)) | 0 (Herbicidal ratio of 5% or lower (almost no effect)) | 0 (Herbicidal ratio of 5% or lower (almost no effect)) | 0 (Herbicidal ratio of 5% or lower (almost no effect)) | 0 (Herbicidal ratio of 5% or lower (almost no effect)) | 0 (Herbicidal ratio of 5% or lower (almost no effect)) | 0 (Herbicidal ratio of 5% or lower (almost no effect)) | 
7 | CC(=O)CC1CC(OC(=O)C(C)(C)C)=C(c2c(C)cc(C)cc2C)C1=O (centres unmarked) [2-018] | 3 (Herbicidal ratio of 40% or higher and lower than 70%) | 0 (Herbicidal ratio of 5% or lower (almost no effect)) | 5 (Herbicidal ratio of 90% or more (almost completely withered)) | 0 (Herbicidal ratio of 5% or lower (almost no effect)) | 2 (Herbicidal ratio of 20% or higher and lower than 40%) | 0 (Herbicidal ratio of 5% or lower (almost no effect)) |  | 0 (Herbicidal ratio of 5% or lower (almost no effect)) | 5 (Herbicidal ratio of 90% or more (almost completely withered)) | 0 (Herbicidal ratio of 5% or lower (almost no effect)) | 4 (Herbicidal ratio of 70% or higher and lower than 90%) | 
8 | CCC(=O)CCC1CC(O)=C(c2c(C)cc(C)cc2C)C1=O (centres unmarked) [5-001] | 0 (Herbicidal ratio of 5% or lower (almost no effect)) | 2 (Herbicidal ratio of 20% or higher and lower than 40%) | 0 (Herbicidal ratio of 5% or lower (almost no effect)) | 0 (Herbicidal ratio of 5% or lower (almost no effect)) | 5 (Herbicidal ratio of 90% or more (almost completely withered)) | 0 (Herbicidal ratio of 5% or lower (almost no effect)) |  | 0 (Herbicidal ratio of 5% or lower (almost no effect)) | 0 (Herbicidal ratio of 5% or lower (almost no effect)) | 0 (Herbicidal ratio of 5% or lower (almost no effect)) | 0 (Herbicidal ratio of 5% or lower (almost no effect)) | 

Reference: patent publication US11000033B2, “Ketone or oxime compound, and herbicide” (NISSAN CHEMICAL CORPORATION, priority 2014, dated 2021)
